Like-named read-outs stand apart in the source and are kept apart here.
How the values were obtained:
in vitro [1] = assay: in vitro; set-up: species or system HB2, CCD841; settings: human, hek293 cells
in vitro [2] = assay: in vitro; set-up: species or system HB2, HEK293; settings: human, ccd841 cells
in vitro [3] = assay: in vitro; set-up: species or system CCD841, HEK293; settings: human, hb2 cells, read-out: HB-2 Cells Viability (%)
OTUB2 (OTUB2A) = biological target: T1, OTUB2 (OTUB2A) (Homo sapiens, UniProt Q96DC9); set-up: Intact protein LC/MS covalent labelling, fragments in pools of five, 200 uM each, 4 °C; settings: 24 h, 4 °C, pool of five; 200 µM; covalent
T1 construct: full length residues 1-234, E. coli BL21(DE3)-R3, His tag removed by TEV, construct 27312 Da
T1 sequence (Q96DC9 1-234): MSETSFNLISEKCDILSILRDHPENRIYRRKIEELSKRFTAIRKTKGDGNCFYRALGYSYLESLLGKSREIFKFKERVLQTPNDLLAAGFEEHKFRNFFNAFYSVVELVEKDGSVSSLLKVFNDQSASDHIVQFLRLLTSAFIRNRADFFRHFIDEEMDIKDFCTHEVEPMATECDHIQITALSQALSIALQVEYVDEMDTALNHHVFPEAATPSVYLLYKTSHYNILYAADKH

BSA = biological target: T2, BSA (Bos taurus, UniProt P02769); set-up: Intact protein LC/MS covalent labelling, fragments in pools of five, 200 uM each, 4 °C; settings: 24 h, 4 °C, pool of five; 200 µM; covalent
T2 construct: gene ALB

PCAF = biological target: T3, PCAF (Homo sapiens, UniProt Q92831); set-up: Intact protein LC/MS covalent labelling, fragments in pools of five, 200 uM each, 4 °C; settings: 24 h, 4 °C, pool of five; 200 µM; covalent
T3 construct: gene KAT2B

NUDT7 = biological target: T4, NUDT7 (Homo sapiens, UniProt P0C024); set-up: Intact protein LC/MS covalent labelling, fragments in pools of five, 200 uM each, 4 °C; settings: 24 h, 4 °C, pool of five; 200 µM; covalent
T4 construct: residues 14-235, E. coli, pNIC28-Bsa4, N-terminal His6 tag removed by TEV, construct 26672 Da
T4 sequence (P0C024 14-235): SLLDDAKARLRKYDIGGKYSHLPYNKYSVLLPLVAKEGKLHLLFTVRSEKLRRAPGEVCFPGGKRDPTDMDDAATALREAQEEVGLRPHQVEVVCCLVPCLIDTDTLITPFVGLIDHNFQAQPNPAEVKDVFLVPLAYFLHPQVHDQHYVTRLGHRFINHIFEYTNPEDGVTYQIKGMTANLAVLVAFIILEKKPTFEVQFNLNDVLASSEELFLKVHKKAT

T3 sequence (Q92831 whole entry, the tested form may be a part): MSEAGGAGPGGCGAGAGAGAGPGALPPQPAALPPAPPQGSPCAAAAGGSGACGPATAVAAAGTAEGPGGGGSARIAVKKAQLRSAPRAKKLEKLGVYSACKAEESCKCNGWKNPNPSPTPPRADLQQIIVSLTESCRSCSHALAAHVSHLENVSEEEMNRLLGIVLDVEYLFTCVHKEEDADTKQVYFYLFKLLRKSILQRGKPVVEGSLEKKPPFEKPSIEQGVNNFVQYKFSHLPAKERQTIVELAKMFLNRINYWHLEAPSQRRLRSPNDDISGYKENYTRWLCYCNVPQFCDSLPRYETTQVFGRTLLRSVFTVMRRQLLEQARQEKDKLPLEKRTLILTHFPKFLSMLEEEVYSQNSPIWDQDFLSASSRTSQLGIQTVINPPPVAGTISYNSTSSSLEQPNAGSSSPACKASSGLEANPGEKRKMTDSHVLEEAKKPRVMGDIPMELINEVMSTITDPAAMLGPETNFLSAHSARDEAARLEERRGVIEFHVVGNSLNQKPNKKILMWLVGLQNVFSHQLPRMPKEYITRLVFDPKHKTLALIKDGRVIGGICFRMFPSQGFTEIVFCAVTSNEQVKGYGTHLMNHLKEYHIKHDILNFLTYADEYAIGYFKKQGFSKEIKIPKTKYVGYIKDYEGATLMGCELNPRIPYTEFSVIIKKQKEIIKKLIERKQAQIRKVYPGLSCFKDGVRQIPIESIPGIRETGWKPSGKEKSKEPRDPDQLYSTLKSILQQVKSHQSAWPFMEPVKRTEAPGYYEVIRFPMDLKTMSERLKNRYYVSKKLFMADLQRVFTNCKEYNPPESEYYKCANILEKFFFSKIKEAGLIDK
T2 sequence (P02769 whole entry, the tested form may be a part): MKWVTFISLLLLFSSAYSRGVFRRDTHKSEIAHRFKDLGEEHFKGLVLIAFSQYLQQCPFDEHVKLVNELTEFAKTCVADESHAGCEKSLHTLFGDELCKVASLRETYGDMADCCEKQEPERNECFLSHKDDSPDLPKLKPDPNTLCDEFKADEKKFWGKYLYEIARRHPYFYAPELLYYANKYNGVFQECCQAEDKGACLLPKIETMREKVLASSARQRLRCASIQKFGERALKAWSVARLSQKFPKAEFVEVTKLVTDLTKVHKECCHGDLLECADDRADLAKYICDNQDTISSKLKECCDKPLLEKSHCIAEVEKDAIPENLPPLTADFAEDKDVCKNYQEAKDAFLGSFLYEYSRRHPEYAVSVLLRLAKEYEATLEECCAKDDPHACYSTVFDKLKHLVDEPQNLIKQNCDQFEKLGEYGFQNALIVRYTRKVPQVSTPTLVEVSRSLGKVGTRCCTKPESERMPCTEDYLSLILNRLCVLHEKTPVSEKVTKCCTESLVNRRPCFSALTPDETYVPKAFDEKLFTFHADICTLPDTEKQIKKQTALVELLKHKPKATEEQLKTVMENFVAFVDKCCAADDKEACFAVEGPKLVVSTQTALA

| Structure (SMILES) | viability at 48 h, 10 µM (in vitro [1]) | viability at 48 h, 10 µM (in vitro [2]) | viability at 48 h, 10 µM (in vitro [3]) | OTUB2 (OTUB2 (OTUB2A)) | BSA (BSA) | PCAF (PCAF) | NUDT7 (NUDT7) |
| --- | --- | --- | --- | --- | --- | --- | --- |
| CS(=O)(=O)c1ccc(NC(=O)CCl)cc1 [PCM-0102335] | 2.7% | 46% | 37.1% | 0.3 | 0 | 0 | 0.06 |
| O=C(CCl)N1N=C(c2ccco2)CC1c1ccco1 (stereo not drawn) [PCM-0102380] | 40.4% | 63.4% | 55.7% | 0 | 0 | 0 | 0.54 |
| Cl.O=C(CCl)N1CCN(Cc2ccccc2F)CC1 [PCM-0102387] | 35.1% | 67.2% | 24% | 0.32 | 0 | 0 | 0 |
| N#CSc1ccc(NC(=O)CCl)c(F)c1 [PCM-0102548] | 55.2% | 26.5% | 19.2% | 0.09 | 0 | 0 | 0 |
| Cc1ccc(C)c(-n2nc(C)cc2NC(=O)CCl)c1 [PCM-0102249] | 25.4% | 64% | 45.3% | 0.43 | 0 | 0 | 0 |
| O=C(CCl)NCC(=O)N1CCCC1 [PCM-0102391] | 116% | 101% | 106% | 0 | 0 | 0 | 0 |
| N#Cc1ccc(NC(=O)CCl)cc1 [PCM-0102875] | 4.3% | 46% | 36.6% | 0.08 | 0 | 0 | 0.14 |
| O=C(CCl)Nc1ccc([N+](=O)[O-])cc1Cl [PCM-0102392] | 43.8% | 53.9% | 43.5% | 0.21 | 0 | 0 | 0.16 |
| CC(=O)N1CCN(C(=O)CCl)CC1 [PCM-0102535] | 37.6% | 82.8% | 85.7% | 0 | 0.2 | 0 | 0.06 |
| CC(C)N(CC(F)(F)F)C(=O)CCl [PCM-0102516] | 106% | 109% | 103% | 0 | 0 | 0 | 0 |
| Cc1cc(C)c(NC(=O)CCl)c(C)c1 [PCM-0102352] | 72.9% | 78.5% | 84.2% | 0 | 0 | 0 | 0 |
| CCC(C)(C)NC(=O)CCl [PCM-0102161] | 116% | 100% | 99.3% | 0.09 | 0 | 0 | 0 |
| C=CC(=O)NCC1CCOC2(CCC2)C1 (stereo not drawn) [PCM-0102523] | 90.4% | 117% | 102% | 0 | 0 | 0 | 0 |
| C=CC(=O)N1CCOc2ccccc21 [PCM-0102629] | 71.1% | 86.1% | 80.9% | 0 | 0 | 0 | 0 |
| C=CC(=O)N1CCC2(CCc3ccccc3O2)C1 (stereo not drawn) [PCM-0103025] | 103% | 90.8% | 101% | 0.2 | 0 | 0 | 0 |
| Cc1cc(C)cc(NC(=O)CCl)c1 [PCM-0102394] | 22.3% | 69.9% | 31.4% | 0.22 | 0 | 0 | 0 |
| O=C(CCl)N1CCN(c2ccccc2[N+](=O)[O-])CC1 [PCM-0103016] | 13.4% | 61.4% | 8.7% | 0.09 | 0.16 | 0 | 0.27 |
| O=C(CCl)NC(=O)c1ccco1 [PCM-0102195] | 87.3% | 109% | 98% | 0 | 0 | 0 | 0 |
| NC(=O)C1CCCCN1C(=O)CCl (stereo not drawn) [PCM-0102203] | 50.7% | 75.3% | 79.7% | 0 | 0 | 0 | 0 |
| CC(=O)Nc1cccc(NC(=O)CCl)c1 [PCM-0102172] | 4.7% | 53.4% | 35.9% | 0 | 0 | 0 | 0 |
| C=CC(=O)N1CCCC(c2nc(-c3cccc(F)c3)no2)C1 (stereo not drawn) [PCM-0102689] | 89.4% | 97.4% | 101% | 0 | 0 | 0 | 0 |
| CC(C)(C)c1cc(NC(=O)CCl)n(-c2ccccc2)n1 [PCM-0102536] | 10.6% | 65.2% | 33.5% | 0.14 | 0 | 0 | 0 |
| C=CC(=O)N1CCCN(C(=O)Oc2ccccc2)CC1 [PCM-0102451] | 93.9% | 105% | 96.2% | 0 | 0 | 0 | 0 |
| C=CC(=O)NCC1=CCCCC1 [PCM-0102726] | 89.9% | 99.1% | 105% | 0 | 0.1 | 0 | 0 |
